A word on the inhibition: it is the change of the read-out against control, counted positive when it falls. One may read the IC50 as the concentration at which inhibition is half-maximal.

This note sets out measurements from patent publication US9422240B2, “Partially saturated nitrogen-containing heterocyclic compound” (TAISHO PHARMACEUTICAL CO., LTD, priority 2012, dated 2016).

Test [1] has as its target T1, human PHD2 (Homo sapiens (Human), UniProt Q9GZT9). In words: Test 1: human PHD2 inhibitory activity, [14C]-2-oxoglutarate to [14C]-succinic acid radiometric assay with HIF-1α peptide. The class given is biochemical. To be noted: test compound's concentration 1 μM; Test 1, [14C]-2-oxoglutarate radiometric assay; read-out: Percent inhibition (% at 1 μM). The method, boiled down: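 Lysate from HighFive insect cells expressing human PHD2 (4 μg/well) was incubated for 15 min at 37° C with a 19-residue HIF-1α peptide and [14C]-2-oxoglutarate. Unreacted 2-oxoglutarate was precipitated with DNPH and filtered off, and [14C]-succinic acid was counted. Inhibition was calculated relative to substrate-free and compound-free controls.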

The target in test [2] is T1, human PHD2. Put plainly: Test 2: human PHD2 inhibitory activity, fluorescence polarization assay of HIF-1α peptide proline hydroxylation. Format: biochemical. To be noted: for inhibition at 1 µM: test compound's concentration 1 μM, Test 2, fluorescence polarization assay, read-out: Percent inhibition (% at 1 μM); for IC50: human PHD2, fluorescence polarization assay, 20-min incubation at 30° C. In short, it runs like this: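 Enzyme from lysate of cells expressing human PHD2 (NM_022051), 40 ng/well, added to compound and 19-residue HIF-1α peptide substrate; 20 min at 30° C., EDTA quench. Prolyl hydroxylation detected by HIF-OH antibody binding via fluorescence polarization; inhibition relative to compound-free wells.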
Background: Fluorescence polarisation rises when a labelled molecule tumbles more slowly, as on binding a larger partner.

T1 sequence (Q9GZT9 whole entry): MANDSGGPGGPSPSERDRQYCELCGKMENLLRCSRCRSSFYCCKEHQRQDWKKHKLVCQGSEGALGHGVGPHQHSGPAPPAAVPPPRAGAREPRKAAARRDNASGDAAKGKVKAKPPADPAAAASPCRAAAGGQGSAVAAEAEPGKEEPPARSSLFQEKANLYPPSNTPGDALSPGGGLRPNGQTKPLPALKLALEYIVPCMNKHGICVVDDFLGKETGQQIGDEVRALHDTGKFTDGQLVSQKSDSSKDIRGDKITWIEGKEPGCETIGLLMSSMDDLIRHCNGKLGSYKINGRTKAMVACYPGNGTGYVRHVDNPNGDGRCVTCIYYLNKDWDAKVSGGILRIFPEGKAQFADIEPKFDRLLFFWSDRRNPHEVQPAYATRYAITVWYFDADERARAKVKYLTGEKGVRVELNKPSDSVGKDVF

Turning to `CC1(COCc2ccc(CN3CCC(O)=C(C(=O)NCC(=O)O)C3=O)cc2)CC1` [Ex. 1-233], the inhibition at 1 µM in test [1] worked out at 91%; in test [2] it was 93%.
Taken in the same sequence, the figures for `O=C(O)CNC(=O)C1=C(O)CCN(Cc2cnc(-c3ccccc3)nc2)C1=O` [Ex. 1-41] were 89% and 90%.
The corresponding values for `CC1(C)CC(O)=C(C(=O)NCC(=O)O)C(=O)N1Cc1cc(-c2ccc(Cl)cc2)on1` [Ex. 1-216] are 75% and 73%.
For `Cc1cc(CN2C(=O)C(C(=O)NCC(=O)O)=C(O)CC2(C)C)ccc1OCCCC(F)(F)F` [Ex. 1-187], the inhibition at 1 µM is 47% in test [1] and 74% in test [2].
On to `O=C(O)CNC(=O)C1=C(O)CCN(Cc2cccc(Cl)c2)C1=O` [Ex. 1-66], for which the inhibition at 1 µM in test [1] came to 80%; in test [2], 77%.
The corresponding values for `CC1(C)CC(O)=C(C(=O)NCC(=O)O)C(=O)N1Cc1cnc(-c2ccccc2)[nH]1` [Ex. 1-293] are 35% and 33%.
Take `O=C(O)CNC(=O)C1=C(O)CCN(Cc2ccc(Oc3cccc(C(F)(F)F)c3)nc2)C1=O` [Ex. 1-285]: the inhibition at 1 µM turned out to be 106% in test [1] and 100% in test [2]. Moreover, in test [2], inhibition was half-maximal at 43 nM (IC50).
For the molecule `CC1(C)CN(Cc2ccc(C(F)(F)F)cc2)C(=O)C(C(=O)NCC(=O)O)=C1O` [Ex. 1-174], the values for the inhibition at 1 µM in test [1] and in test [2] were 59% and 74%, respectively.
Taken in the same sequence, the figures for `O=C(O)CNC(=O)C1=C(O)CCN(CCc2ccc(C(F)(F)F)cc2)C1=O` [Ex. 1-176] were 74% and 80%.
The corresponding values for `Cc1ccc(Oc2ccc(CN3CC4(CC4)C(O)=C(C(=O)NCC(=O)O)C3=O)cn2)cc1` [Ex. 1-277] are 108% and 97%.
`Cc1ccccc1Oc1ccc(CN2CCC(O)=C(C(=O)NCC(=O)O)C2=O)cn1` [Ex. 1-275]: the inhibition at 1 µM in test [1] was 85%. In test [2], half-maximal inhibition (IC50) was put at 99 nM and the inhibition at 1 µM was found to be 94%.
Consider `O=C(O)CNC(=O)C1=C(O)C2(CCCCC2)CN(Cc2ccc3ccccc3c2)C1=O` [Ex. 1-7], for which the inhibition at 1 µM in test [1] was 54%; in test [2] it was 68%.
Taken in the same sequence, the figures for `CC(C)(C)c1ccc(-c2ccc(CN3C(=O)C(C(=O)NCC(=O)O)=C(O)CC34COC4)cc2)cc1` [Ex. 1-138] were 83% and 97%.
Taken in the same sequence, the figures for `CC1(C)CC(O)=C(C(=O)NCC(=O)O)C(=O)N1Cc1ccc(OCC2CC2)cc1` [Ex. 1-198] were 70% and 79%.
On to `CC(c1ccc(C(F)(F)F)cc1)N1CCC(O)=C(C(=O)NCC(=O)O)C1=O` (stereo not shown) [Ex. 1-146], for which the figures for the inhibition at 1 µM in test [1] and in test [2] were 69% and 70%, respectively.
The corresponding values for `CC1(C)CC(O)=C(C(=O)NCC(=O)O)C(=O)N1Cc1ccc(OCCCC(F)(F)F)cc1` [Ex. 1-186] are 64% and 77%.
`O=C(O)CNC(=O)C1=C(O)CCN(CCc2ccccc2)C1=O` [Ex. 1-34]: the inhibition at 1 µM in test [1] amounted to 58%; in test [2] it was 75%.
The corresponding values for `Cc1ccc(Oc2ccc(CN3C(=O)C(C(=O)NCC(=O)O)=C(O)CC3(C)C)cn2)cc1` [Ex. 1-206] are 95% and 93%.
The corresponding values for `O=C(O)CNC(=O)C1=C(O)CC2(CC2)N(Cc2ccc(C3CC3)cc2)C1=O` [Ex. 1-266] are 83% and 89%.
Taken in the same sequence, the figures for `CC1(C)CC(O)=C(C(=O)NCC(=O)O)C(=O)N1Cc1ccc(C2CC2)cc1` [Ex. 1-203] were 61% and 69%.
As for `O=C(O)CNC(=O)C1=C(O)CCN(Cc2ccc3ccccc3c2)C1=O` [Ex. 1-29], the inhibition at 1 µM was found to be 81% in test [1] and 86% in test [2].
Turning to `O=C(O)CNC(=O)C1=C(O)CCN(Cc2ccc(OCC3CCC3)cc2)C1=O` [Ex. 1-238], the inhibition at 1 µM in test [1] amounted to 92%; in test [2] it was 99%.
As to `O=C(O)CNC(=O)C1=C(O)CCN(Cc2ccc(-c3cnoc3)cc2)C1=O` [Ex. 2-8], the results for the inhibition at 1 µM in test [1] and in test [2] were 87% and 88%, respectively.
Take `O=C(O)CNC(=O)C1=C(O)CC2(CCOCC2)N(Cc2ccc(C(F)(F)F)cc2)C1=O` [Ex. 1-106]: the inhibition at 1 µM came to 66% in test [1] and 72% in test [2].
The corresponding values for `O=C(O)CNC(=O)C1=C(O)CCN(CCc2ccc(-c3ccccc3)cc2)C1=O` [Ex. 1-31] are 89% and 89%.
Taken in the same sequence, the figures for `COc1ccc(CN2C(=O)C(C(=O)NCC(=O)O)=C(O)CC2(C)C)cc1Cl` [Ex. 1-195] were 52% and 57%.
As to `CC1(C)CC(O)=C(C(=O)NCC(=O)O)C(=O)N1Cc1ccc(-c2ccccn2)cc1` [Ex. 1-109], the results for the inhibition at 1 µM in test [1] and in test [2] were 70% and 77%, respectively.
On to `O=C(O)CNC(=O)C1=C(O)CC2(COC2)N(Cc2cnc(-c3ccccc3)s2)C1=O` [Ex. 1-123], for which the inhibition at 1 µM was 90% in test [1] and 93% in test [2].
With `Cc1ccc(Oc2ccc(CN3CCC(O)=C(C(=O)NCC(=O)O)C3=O)cc2)cn1` [Ex. 1-273], the inhibition at 1 µM in test [1] came out at 99%. In test [2], inhibition was half-maximal at 112 nM (IC50) and the inhibition at 1 µM was 92%.
As for `CC1(C)CC(O)=C(C(=O)NCC(=O)O)C(=O)N1Cc1ccc(C2CCC2)cc1` [Ex. 1-211], the inhibition at 1 µM in test [1] was found to be 76%; in test [2], 79%.
The corresponding values for `O=C(O)CNC(=O)C1=C(O)CCN(Cc2ccc(Cl)c(Cl)c2)C1=O` [Ex. 1-67] are 84% and 89%.
`CC1CN(Cc2cnc(-c3ccccc3)s2)C(=O)C(C(=O)NCC(=O)O)=C1O` (stereo not shown) [Ex. 1-104]: the results for the inhibition at 1 µM in test [1] and in test [2] were 87% and 94%, respectively.
Regarding `O=C(O)CNC(=O)C1=C(O)CCN(Cc2ccc3c(c2)CCC3)C1=O` [Ex. 1-269], the inhibition at 1 µM in test [1] was 85%; in test [2], 89%.
On to `O=C(O)CNC(=O)C1=C(O)CCN(Cc2ccc(-c3ccc(C(F)(F)F)nc3)cc2)C1=O` [Ex. 2-21], for which the inhibition at 1 µM in test [1] came out at 88%; in test [2], 93%.
Taken in the same sequence, the figures for `O=C(O)CNC(=O)C1=C(O)C2(CCC2)CN(Cc2ccc(OCC3CC3)cc2)C1=O` [Ex. 1-250] were 80% and 81%.
Regarding `O=C(O)CNC(=O)C1=C(O)CCN(Cc2ccc(OCc3ccccc3)cc2)C1=O` [Ex. 1-240], the inhibition at 1 µM in test [1] turned out to be 91%; in test [2] it was 97%.
For `Cc1nc(C)c(-c2ccc(CN3CCC(O)=C(C(=O)NCC(=O)O)C3=O)cc2)s1` [Ex. 2-20], the inhibition at 1 µM stood at 102% in test [1] and 93% in test [2].
Taken in the same sequence, the figures for `CC1CC(O)=C(C(=O)NCC(=O)O)C(=O)N1Cc1ccc(C(F)(F)F)cc1` (stereo not shown) [Ex. 1-78] were 70% and 78%.
Taken in the same sequence, the figures for `O=C(O)CNC(=O)C1=C(O)CC2(CC2)N(Cc2ccc(OCC3CC3)cc2)C1=O` [Ex. 1-251] were 90% and 83%.
Taken in the same sequence, the figures for `CC1CN(Cc2ccc(Cl)c(Cl)c2)C(=O)C(C(=O)NCC(=O)O)=C1O` (stereo not shown) [Ex. 1-163] were 84% and 90%.
As to `O=C(O)CNC(=O)C1=C(O)CCN(Cc2ccc(OCc3ccc(F)cc3)cc2)C1=O` [Ex. 1-241], the inhibition at 1 µM in test [1] was found to be 97%; in test [2] it was 101%.
For the molecule `O=C(O)CNC(=O)C1=C(O)CCN(Cc2ccc(Oc3ccc(Cl)cn3)cc2)C1=O` [Ex. 1-289], the inhibition at 1 µM in test [1] was 95%; in test [2], 98%. In test [2], this molecule yielded an IC50 of 68 nM.
Turning to `O=C(O)CNC(=O)C1=C(O)C2(CCCCC2)CN(Cc2ccc(C(F)(F)F)cc2)C1=O` [Ex. 1-82], the inhibition at 1 µM was 51% in test [1] and 77% in test [2].
Take `O=C(O)CNC(=O)C1=C(O)C2(CCOCC2)CN(Cc2ccc(-c3ccccn3)cc2)C1=O` [Ex. 1-110]: the inhibition at 1 µM was 82% in test [1] and 84% in test [2].
Taken in the same sequence, the figures for `O=C(O)CNC(=O)C1=C(O)C2(CCC2)CN(Cc2cnc(-c3ccccc3)s2)C1=O` [Ex. 1-95] were 85% and 91%.
Regarding `O=C(O)CNC(=O)C1=C(O)CC(Cc2ccccc2)N(Cc2ccc(C(F)(F)F)cc2)C1=O` (stereo not shown) [Ex. 1-181], the values for the inhibition at 1 µM in test [1] and in test [2] were 73% and 83%, respectively.
Taken in the same sequence, the figures for `O=C(O)CNC(=O)C1=C(O)CCN(Cc2ccc(-c3ccncc3)cc2)C1=O` [Ex. 2-19] were 96% and 93%.
Taken in the same sequence, the figures for `Cc1ccc(COc2ccc(CN3CCC(O)=C(C(=O)NCC(=O)O)C3=O)cc2)cc1` [Ex. 1-305] were 94% and 97%.
On to `CC1(C)CN(Cc2ccc(OCC3CC3)cc2)C(=O)C(C(=O)NCC(=O)O)=C1O` [Ex. 1-302], for which the inhibition at 1 µM in test [1] amounted to 61%; in test [2], 79%.
Regarding `Cn1nccc1-c1ccc(CN2CCC(O)=C(C(=O)NCC(=O)O)C2=O)cc1` [Ex. 2-17], the inhibition at 1 µM in test [1] was found to be 94%; in test [2], 87%.
Taken in the same sequence, the figures for `CC1(C)CC(O)=C(C(=O)NCC(=O)O)C(=O)N1Cc1ccc(OCCCC(F)(F)F)c(F)c1` [Ex. 1-201] were 67% and 73%.
